In ChEMBL document CHEMBL1201862, “PubChem BioAssay data set” (2004):
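Tested at 5 concentrations; 48 h exposure; 96-well plates; endpoints linearly interpolated, else capped at highest concentration. GI50 is the concentration that inhibits growth by half.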 Active and inactive are the calls of the source. Rule as the data show it: active = GI50 up to about 1.1 µM and inactive = higher. *1 amine or outer side, *2 acyl side, *3 side chain or, on linkers, in order; H or OH if unused. Where a SMILES comes first, the peptide text is derived from it. Bridges are numbered along the chain shown (N, C = ends). Roman numbers before positions name the chains, in order. [ ]: non-standard residue; d: D form. Actinocin(9to1) = Cc1c2oc3c(C)ccc(C(=O)[*:1])c3nc-2c(C(=O)[*:2])c(N)c1=O; NMeV = CN[CH](C(=O)O)C(C)C; Sar = CNCC(=O)O

Experiments:
Assay in all cases: NCI-60 cell line screen, 48 h
DU-145 = system: DU-145
COLO 205 = system: COLO 205
NCI-H226 = system: NCI-H226
MCF7 = system: MCF7
NCI/ADR-RES = system: NCI/ADR-RES
786-0 = system: 786-0
NCI-H23 = system: NCI-H23
PC-3 = system: PC-3
SF-539 = system: SF-539
MDA-MB-435 = system: MDA-MB-435
HCT-15 = system: HCT-15
T47D = system: T47D
Malme-3M = system: Malme-3M
MDA-N = system: MDA-N
BT-549 = system: BT-549
SK-MEL-5 = system: SK-MEL-5
Hs-578T = system: Hs-578T
KM12 = system: KM12
MDA-MB-231 = system: MDA-MB-231
SNB-78 = system: SNB-78

SMILES	GI50 (DU-145)	GI50 (COLO 205)	GI50 (NCI-H226)	GI50 (MCF7)	GI50 (NCI/ADR-RES)	GI50 (786-0)	GI50 (NCI-H23)	GI50 (PC-3)	GI50 (SF-539)	GI50 (MDA-MB-435)	GI50 (HCT-15) [µM]	GI50 (T47D)	GI50 (Malme-3M)	GI50 (MDA-N)	GI50 (BT-549)	GI50 (SK-MEL-5)	GI50 (Hs-578T)	GI50 (KM12)	GI50 (MDA-MB-231)	GI50 (SNB-78)
CCNC(=S)N/N=C/c1ccccn1	7.13 µM (inactive)	3.24 µM (inactive)	3.83 µM (inactive)	3.27 µM (inactive)	6.95 µM (inactive)	5.81 µM (inactive)	6.56 µM (inactive)	6.95 µM (inactive)	6.7 µM (inactive)	16.3 µM (inactive)	6.64	1.98 µM (inactive)	5.78 µM (inactive)	27.7 µM (inactive)	20.9 µM (inactive)	3.95 µM (inactive)	> 100 µM (inactive)	8.67 µM (inactive)	7.05 µM (inactive)	
N=C(N)NCC(N)C(=O)O (stereo not drawn)	> 100 µM (inactive)	> 100 µM (inactive)	> 100 µM (inactive)	> 100 µM (inactive)	> 100 µM (inactive)	> 100 µM (inactive)	> 100 µM (inactive)	> 100 µM (inactive)	> 100 µM (inactive)	> 100 µM (inactive)	> 100	> 100 µM (inactive)	> 100 µM (inactive)	> 100 µM (inactive)	> 100 µM (inactive)	> 100 µM (inactive)	> 100 µM (inactive)	> 100 µM (inactive)	> 100 µM (inactive)	
Clc1ccc(OC2CCO2)cc1Cl (stereo not drawn)		90.8 µM (inactive)	52.8 µM (inactive)			85.9 µM (inactive)	83.8 µM (inactive)		> 100 µM (inactive)		15.7		> 100 µM (inactive)			62.1 µM (inactive)		76.6 µM (inactive)		> 100 µM (inactive)
COc1ccc2c(c1)OC[C@@H]1c3cc(O)c(OCc4ccccc4)cc3O[C@H]21		27.9 µM (inactive)	27.3 µM (inactive)			37.3 µM (inactive)	16.4 µM (inactive)		90.4 µM (inactive)		22		28.1 µM (inactive)			13.1 µM (inactive)		30.2 µM (inactive)		19.7 µM (inactive)
COc1ccc2nc3cc(Cl)ccc3c(NCCCCCC(=O)NC(COc3ccc4ccc5cccnc5c4n3)COc3ccc4ccc5cccnc5c4n3)c2c1	11.5 µM (inactive)	18.3 µM (inactive)	20.8 µM (inactive)	2.23 µM (inactive)	26.9 µM (inactive)	15.4 µM (inactive)	21.4 µM (inactive)	15.2 µM (inactive)	16.9 µM (inactive)	38.6 µM (inactive)	35.3	20.1 µM (inactive)	45.9 µM (inactive)	23 µM (inactive)	1.67 µM (inactive)	16.8 µM (inactive)	29 µM (inactive)	27.9 µM (inactive)	19.4 µM (inactive)	
Clc1cc(Cl)cc(C2SCc3nc4ccccc4n32)c1 (stereo not drawn)		18.2 µM (inactive)	19.9 µM (inactive)			15.6 µM (inactive)	17 µM (inactive)		11.1 µM (inactive)				15.8 µM (inactive)			12.7 µM (inactive)		13.6 µM (inactive)		6.03 µM (inactive)
Cn1c(=O)c2[nH]c(/N=N/N3CCN(CCO)CC3)nc2n(C)c1=O	> 100 µM (inactive)	> 100 µM (inactive)	> 100 µM (inactive)	> 100 µM (inactive)	67 µM (inactive)	> 100 µM (inactive)	> 100 µM (inactive)	> 100 µM (inactive)	> 100 µM (inactive)	> 100 µM (inactive)	> 100	> 100 µM (inactive)	> 100 µM (inactive)	> 100 µM (inactive)	18.8 µM (inactive)	> 100 µM (inactive)	> 100 µM (inactive)	> 100 µM (inactive)	> 100 µM (inactive)	
O=c1[nH]cnc2c(COCCCO)c[nH]c12		> 100 µM (inactive)				> 100 µM (inactive)	> 100 µM (inactive)				> 100		> 100 µM (inactive)			> 100 µM (inactive)		> 100 µM (inactive)		> 100 µM (inactive)
COc1nc2c(N3CCCC3)nc(N3CCNCC3)nc2nc1NCc1ccccc1	1.75 µM (inactive)	0.524 µM (active)	2.34 µM (inactive)	1.76 µM (inactive)	4.17 µM (inactive)	1.33 µM (inactive)	2.16 µM (inactive)	2.28 µM (inactive)	1.75 µM (inactive)	1.39 µM (inactive)	1.72	1.41 µM (inactive)	2.07 µM (inactive)	1.21 µM (inactive)	1.85 µM (inactive)	1.53 µM (inactive)	2.08 µM (inactive)	1.61 µM (inactive)	1.63 µM (inactive)	
O=C(NC1CCCCC1)NC12CC3CC(CC(F)(C3)C1)C2		> 100 µM (inactive)				> 100 µM (inactive)	> 100 µM (inactive)		> 100 µM (inactive)				> 100 µM (inactive)			> 100 µM (inactive)		> 100 µM (inactive)		> 100 µM (inactive)
COc1cccc(/C=C2/S/C(=N/Nc3nc(C)c(C(C)=O)s3)NC2=O)c1O	34.4 µM (inactive)	27.5 µM (inactive)	37.7 µM (inactive)	32.6 µM (inactive)	33.8 µM (inactive)	27.8 µM (inactive)	35.3 µM (inactive)	25.9 µM (inactive)	34.8 µM (inactive)	30.5 µM (inactive)	26.2	23.3 µM (inactive)	33 µM (inactive)	31.7 µM (inactive)	28.9 µM (inactive)	20.9 µM (inactive)	57.8 µM (inactive)	36.2 µM (inactive)	18.9 µM (inactive)	
CN(c1ccc(C(=O)c2ccc(N(C)S(C)(=O)=O)cc2)cc1)S(C)(=O)=O		> 100 µM (inactive)	> 100 µM (inactive)			> 100 µM (inactive)	34.5 µM (inactive)						> 100 µM (inactive)			27.9 µM (inactive)		> 100 µM (inactive)		> 100 µM (inactive)
CSC1(C)C(=O)Nc2c(OCc3ccccc3)cc([N+](=O)[O-])cc21 (stereo not drawn)	> 100 µM (inactive)	> 100 µM (inactive)	13.5 µM (inactive)	14 µM (inactive)	28.4 µM (inactive)	12.9 µM (inactive)	75.9 µM (inactive)	27 µM (inactive)	66.1 µM (inactive)	78.3 µM (inactive)	50.5	19.3 µM (inactive)	63.4 µM (inactive)	30.1 µM (inactive)	51.1 µM (inactive)	15.3 µM (inactive)	17.7 µM (inactive)	96.8 µM (inactive)	26.7 µM (inactive)	
CC(C)N(C(=O)C1(O)c2ccccc2C=Cc2ccccc21)C(C)C	17.9 µM (inactive)	19.3 µM (inactive)	19.3 µM (inactive)	17.3 µM (inactive)	18.2 µM (inactive)	20.6 µM (inactive)	17.6 µM (inactive)	15.5 µM (inactive)	18.7 µM (inactive)	30.1 µM (inactive)	21.1	16.6 µM (inactive)	17.6 µM (inactive)	19.3 µM (inactive)	18.8 µM (inactive)	16.3 µM (inactive)	45.9 µM (inactive)	22.9 µM (inactive)	15.7 µM (inactive)	
c1ccc(C2N3CCCCC3[C@@H]3c4[nH]c5ccccc5c4CCN23)cc1 (stereo partly drawn)		23.3 µM (inactive)				> 100 µM (inactive)	> 100 µM (inactive)		> 100 µM (inactive)		> 100		27 µM (inactive)			67.3 µM (inactive)				47.5 µM (inactive)
CCCCCCCCCCC(C)CCCCCCC(=O)OCC(COP(=O)([O-])OCC[N+](C)(C)C)OC(=O)CCCCCCC(C)CCCCCCCCCC (stereo not drawn)		> 100 µM (inactive)	> 100 µM (inactive)			> 100 µM (inactive)	> 100 µM (inactive)				> 100		> 100 µM (inactive)			> 100 µM (inactive)		> 100 µM (inactive)		> 100 µM (inactive)
O=C1c2ccccc2C(=O)c2[nH]c(=O)c(/C=N/Nc3ccc([N+](=O)[O-])cc3)nc21	1.81 µM (inactive)	7.98 µM (inactive)	1.51 µM (inactive)	9.38 µM (inactive)	19.1 µM (inactive)	15.9 µM (inactive)	1.63 µM (inactive)	17.1 µM (inactive)	5.93 µM (inactive)	1.8 µM (inactive)	3.67	> 47.2 µM (inactive)	1.21 µM (inactive)	1.75 µM (inactive)	5.08 µM (inactive)	1.62 µM (inactive)	3.22 µM (inactive)	5.73 µM (inactive)	11.3 µM (inactive)	
COc1ccc(C(=O)c2c3cc(OC)c(OC)c(OC)c3cc[n+]2C)cc1			19.7 µM (inactive)			18.6 µM (inactive)	23.7 µM (inactive)		> 10 µM (inactive)				35 µM (inactive)			17.5 µM (inactive)		30.4 µM (inactive)		38.5 µM (inactive)
Cc1c2oc3c(C)ccc(C(=O)NC4C(=O)NC(C(C)O)C(=O)N5CCCC5C(=O)N(C)CC(=O)N(C)C(C(C)C)C(=O)OC4C)c3nc-2c(C(=O)NC2C(=O)NC(C(C)O)C(=O)N3CCCC3C(=O)N(C)CC(=O)N(C)C(C(C)C)C(=O)OC2C)c(N)c1=O (stereo not drawn) (I: TTP[Sar][NMeV] / II: TTP[Sar][NMeV]; ester I:1-I:C, II:1-II:C; linker I:N-II:N via Actinocin(9to1); configuration not given here)	1.32 µM (inactive)	0.0528 µM (active)	0.0344 µM (active)	0.0507 µM (active)	> 100 µM (inactive)	0.136 µM (active)	0.274 µM (active)	1.06 µM (active)	0.0764 µM (active)	0.413 µM (active)	7.48	0.184 µM (active)	0.125 µM (active)	1.08 µM (active)	0.0155 µM (active)	0.167 µM (active)	1.41 µM (inactive)	0.185 µM (active)	3.76 µM (inactive)	
